Molecules are shown by their SMILES.

Assay [1] has as its system HCT-116 cells. Kind of assay: Proliferation inhibition assay of cancer cells. In kind it is cell-based. The settings on record: Homo sapiens, 96 h, adherent culture with 10% FBS, cultured for 4 days, Cell Titer-Glo, read-out: IC50 (μM) HCT (Bulk IC50 value). As to the method: HCT-116 cells were obtained from American Type Culture Collection (ATCC). HCT-116 cells were cultured at 37° C. in the presence of 5% CO2 using McCoy's 5a medium containing 10% fetal bovine serum (FBS) and 1% penicillin/streptomycin. After cells were seeded at 300-600 cells/well onto μClear-plate black 384 well (Greiner bio-one Cat. No. 781091), a test substance was added such that the final concentration of DMSO is 0.1%, and cultured for 4 days. The number of living cells was then counted using Cell Titer-Glo (registered trademark) Luminescent Cell Viability Assay (Promega) to calculate a concentration for 50% inhibition of cell proliferation of respective test substances (Bulk IC50 value; μM).

For assay [2], the system named is HCT-116 cells. Kind of assay: Inhibition assay of cancer cell sphere-forming ability. In kind it is cell-based. The note with it: Homo sapiens, 96 h, ultra-low attachment plate, serum-free DMEM/F12 with B27, EGF, bFGF, insulin, cultured for 4 days, Cell Titer-Glo. As to the method:
HCT-116 cells were obtained from American Type Culture Collection (ATCC). HCT-116 cells were cultured at 37° C. in the presence of 5% CO2 using McCoy's 5a medium containing 10% fetal bovine serum (FBS) and 1% penicillin/streptomycin. The HCT-116 cells were seeded onto 384 Well Black Clear Bottom Ultra-Low Attachment Microplate (Corning Cat. No. 3827) using DMEM/F12 medium containing 2% B27 supplement (GIBCO), 20 ng/mL epidermal growth factor (EGF) (peprotech), 10 ng/mL basic fibroblast growth factor (bFGF) (peprotech), 5 μg/mL insulin (Sigma), and 1% penicillin/streptomycin to be 350-800 cells/well. A test substance was added so that the final concentration of DMSO is 0.1%, and then cultured for 4 days. The number of living cells was then counted using Cell Titer-Glo (registered trademark) Luminescent Cell Viability Assay (Promega) to calculate the concentration for 50% inhibition of cell proliferation of respective test substances (Sphere IC50 value; μM) (this test is a method which evaluates the functions of cancer stem cells (see Non Patent Literature 4)).

Take `CC(=O)c1cc2c(o1)C(=O)c1c(Cl)ccc(O)c1C2=O` [Example 1, 2-Acetyl-8-chloro-5-hydroxynaphtho[2,3-b]furan-4,9-dione]: the IC50 in assay [1] worked out at 0.63 µM; in assay [2], 0.24 µM.
On the same counts, the results for `CC(=O)c1cc2c(o1)C(=O)c1ccc(Br)c(O)c1C2=O` [Example 2, 2-Acetyl-6-bromo-5-hydroxynaphtho[2,3-b]furan-4,9-dione] are 0.63 µM and 5.12 µM.
As for `CC(=O)c1cc2c(o1)C(=O)c1c(ccc(Br)c1O)C2=O` [Example 3, 2-Acetyl-7-bromo-8-hydroxynaphtho[2,3-b]furan-4,9-dione], the results for the 50% inhibitory concentration (IC50) in assay [1] and in assay [2] were 4.93 µM and 6.39 µM, respectively.

Source of the values: US20190375723A1, “New Naphtho[2,3-B]Furan Derivatives” (Boston Biomedical, Inc., priority 2016, published 2019).
